In series [1] the test system is K562. Put plainly: Growth inhibition of human K562 cells at 10 uM after 24 hrs by MTT assay. In kind it is functional. Particulars: K562, 24 h, read-out: GI.
The test system of another series is MDA-MB-231. Put plainly: Growth inhibition of human MDA-MB-231 cells at 10 uM after 24 hrs by MTT assay. Conditions: MDA-MB-231, 24 h, read-out: GI. In kind it is functional.
Series [2] relates to HepG2. Put plainly: Growth inhibition of human HepG2 cells at 10 uM after 24 hrs by MTT assay. In kind it is functional. Particulars: HepG2, 24 h, read-out: GI.
Series [3] is described as follows: Growth inhibition of human HEK293 cells at 10 uM after 24 hrs by MTT assay. Conditions: read-out: GI. In kind it is cell-based.
Series [4] deals with K562. Put plainly: Cytotoxicity against human K562 cells after 24 hrs by MTT assay. In kind it is functional, cell-based. Conditions: K562, 24 h.
A further series deals with Saccharomyces cerevisiae. The series is described as follows: Inhibition of yeast SIRT2 assessed as derepression of Ura3 gene at 50 uM in presence of 5-fluoroorotic acid.
In series [5] the test system is HepG2. The series is described as follows: Cytotoxicity against human HepG2 cells after 24 hrs by MTT assay. In kind it is functional, cell-based. Conditions: HepG2, 24 h.
Series [6] deals with HepG2. The series is described as follows: Ratio of doxorubicin IC50 to compound IC50 for human HepG2 cells. In kind it is functional.

Some results are limits rather than exact numbers.

`CCCCCC#Cc1c(-c2ccccc2)oc(=O)c2c3c(sc12)CCCCC3`: the results for the inhibition of growth at 10 µM with K562 [1], with MDA-MB-231 and in the series with HepG2 [2] were 12.3%, 41.9% and 24.8%, respectively. The inhibition at 24 h, 10 µM in series [3] is 0.44%.
For `O=c1oc(-c2ccccc2)c(I)c2sc3c(c12)CCCC3` the same measures were 38.1%, 22.7%, 0% and 0.6%.
Take `O=c1oc(-c2ccccc2)c(-c2ccccc2)c2sc3c(c12)CCCCC3`: the inhibition of growth at 10 µM in the series on K562 [1] was found to be 24%; in the series with MDA-MB-231 it was 7.42%; in the series on HepG2 [2] it was 35.9%. The inhibition at 24 h, 10 µM in series [3] amounted to 0.01%.
Take `CCOC(=O)/C=C/c1c(-c2ccccc2)oc(=O)c2c3c(sc12)CCCCC3`: the inhibition of growth at 10 µM in the series on K562 [1] was 27.4%; in the series on MDA-MB-231 it was 42.6%; in the series on HepG2 [2] it was 12%. In series [3], the inhibition at 24 h, 10 µM turned out to be 1.11%.
The matching figures for `O=c1oc(-c2ccccc2)c(C#Cc2ccccc2)c2sc3c(c12)CCCCC3`: 13.9%, 34.7%, 20.1% and 1.7%.
For `CCCCC#Cc1c(-c2ccccc2)oc(=O)c2c3c(sc12)CCCCC3`, the inhibition of growth at 10 µM was found to be 66.4% in the series with K562 [1], 25.2% in the series on MDA-MB-231 and 24.1% in the series with HepG2 [2]. Also, the inhibition at 24 h, 10 µM in series [3] is 3.2%. In the series with K562 [4], inhibition was half-maximal at 2280 nM (IC50). Besides, in the series with Saccharomyces cerevisiae, the inhibition is 30%.
`CC(C)(C)OC(=O)N1CCc2c(sc3c(I)c(-c4ccccc4)oc(=O)c23)C1`: the inhibition of growth at 10 µM was 8.34% in the series on K562 [1], 27.5% in the series on MDA-MB-231 and 15.5% in the series on HepG2 [2]. Also, the inhibition at 24 h, 10 µM in series [3] was determined as 9.03%.
`O=c1oc(-c2ccccc2)c(I)c2sc3c(c12)CCCCC3`: the inhibition of growth at 10 µM with K562 [1] is 30.3%; in the series with MDA-MB-231, 40.1%; in the series on HepG2 [2], 12%. Moreover, in series [3], the inhibition at 24 h, 10 µM is 0.23%.
In the series with K562 [4], `Cc1ccc(NC(=O)c2ccc(CN3CCN(C)CC3)cc2)cc1Nc1nccc(-c2cccnc2)n1` [IMATINIB] gave an IC50 of 100 nM.
Regarding `O=c1oc(-c2ccccc2)c(-c2ccccc2)c2sc3c(c12)CCC3`, the inhibition of growth at 10 µM in the series on K562 [1] amounted to 26.7%; in the series on MDA-MB-231 it was 12.4%; in the series with HepG2 [2], 13.4%. Also, the inhibition at 24 h, 10 µM in series [3] came to 4%.
For `CC(C)(O)C#Cc1c(-c2ccccc2)oc(=O)c2c3c(sc12)CCCCC3` the same measures were 9.32%, 21.6%, 25% and 4.2%.
The matching figures for `O=c1oc(-c2ccccc2)c(-c2ccc(O)cc2)c2sc3c(c12)CCCC3`: 9.85%, 22.9%, 23% and 0.5%.
Consider `Cc1ccc(-c2oc(=O)c3c4c(sc3c2I)CCCC4)cc1`, for which the inhibition of growth at 10 µM in the series on K562 [1] is 64.2%; in the series on MDA-MB-231 it was 32.5%; in the series with HepG2 [2] it was 68.2%. Besides, the inhibition at 24 h, 10 µM in series [3] came out at 0%. For the same compound, the IC50 is 2330 nM in the series with K562 [4] and 2380 nM in the series on HepG2 [5]. In addition, the inhibition in the series on Saccharomyces cerevisiae is 30%. Further, the “Ratio IC50” value in the series with HepG2 [6] is more than 2.

(Values after ChEMBL document CHEMBL2040793, “Thieno[3,2-c]pyran-4-one based novel small molecules: their synthesis, crystal structure analysis and in vitro evaluation as potential anticancer agents” (Bioorg Med Chem Lett, 2012).)
